Measurements as given in US20230381121A1, “N-PALMITOYLETHANOLAMIDE AND MELATONIN FOR USE IN THE TREATMENT OF AUTISM SPECTRUM DISORDER AND OTHER NEUROBEHAVIORAL DISORDERS SIMILARLY ACCOMPANIED BY RESTLESSNESS, IRRITABILITY, SLEEP DISORDERS, AND POTENTIALLY STEREOTYPIES” (priority 2022, published 2023).
Entries after “also recorded” stand apart in the source; their conditions may differ.

How the values were obtained:
[1] = system: mice in which an autistic phenotype was induced by valproic acid (VPA); experiment: Thermal Nociception test (hot plate) in VPA mice; assay type: in vivo, C57/BL6 mice; details: melatonin at 1 mg/kg per os daily for 14 days, the worsening is significant, FIG. 6
Method: (§1) To evaluate the synergy of a combination PEA-um and melatonin, experimental tests were carried out by oral administration (gastric tube) of a mixture of um-PEA and melatonin (approximately 10:1 ratio) at a dose of 10 mg/kg for two weeks in mice in which an autistic phenotype was induced by a single injection of valproic acid in the form of sodium valproate (VPA).
(§2) Healthy male C57/BL6 mice fed ad libitum and housed in cages with controlled sleep/wake cycles were used in the first experimentation. […]
(§3) The animals underwent the following behavioral tests: • The social interaction test, also known as a 3-chamber social test (FIGS. 2A, 2B and FIGS. 15A, 15B) to evaluate i) the interaction time of the animals with an unknown mouse and ii) the sociability index (ratio between the time spent by the mouse exploring the area without and with the new companion). […] In this phase of the test, parameters such as the time spent by the animal exploring i) the chambers and ii) the unfamiliar mouse were detected. • The Novel Object Recognition Test or NOR test (FIGS. 3A, 3B) to examine cognition and recognition memory by calculating the time spent by the animal exploring new objects with respect to familiar ones. […]

[2] = system: mice in which an autistic phenotype was induced by valproic acid (VPA); experiment: VPA injection model of autism: overall activity in the study; assay type: in vivo, C57/BL6 mice
Method: as §1, §2, §3

BTBR T+tf/J (BTBR) mice [3] = experiment: Social interaction test and 3-chamber social interaction test in BTBR mice; assay type: in vivo; details: melatonin 0.1 mg/kg orally for 10 days
Method: (§4) Furthermore, experimental tests were carried out to determine the synergy of the PEA-Melatonin-DHA combination administered orally to genetically modified BTBR T+tf/J (BTBR) mice, an animal model of neurobehavioral disorders of the ASD type.
(§5) To determine the synergy of a PEA-um, melatonin and DHA combination, a second experimentation was performed, using a different animal model useful for the study of neurobehavioral disorders, and more precisely BTBR mice. […]
(§6) The animals underwent the following behavioral tests: • The social interaction test, also known as a 3-chamber social test (FIGS. 2A, 2B and FIGS. 15A, 15B) to evaluate i) the interaction time of the animals with an unknown mouse and ii) the sociability index (ratio between the time spent by the mouse exploring the area without and with the new companion). […] In this phase of the test, parameters such as the time spent by the animal exploring i) the chambers and ii) the unfamiliar mouse were detected. • The Novel Object Recognition Test or NOR test (FIGS. 3A, 3B) to examine cognition and recognition memory by calculating the time spent by the animal exploring new objects with respect to familiar ones. […] The exploration time was counted from the moment the mice directly looked at and smelled the object at a distance of less than 2 cm. […]

BTBR T+tf/J (BTBR) mice [4] = experiment: Marble Burying test in BTBR mice; assay type: in vivo; details: melatonin 0.1 mg/kg orally for 10 days, FIG. 15C
Method: as §4, §5, §6

BTBR T+tf/J (BTBR) mice [5] = experiment: Self Grooming test in BTBR mice; assay type: in vivo; details: melatonin 0.1 mg/kg orally for 10 days, FIG. 15D
Method: as §4, §5, §6

[6] = system: mice with a simil-autistic phenotype; details: cited from earlier work
autistic children = details: um-PEA 600 mg/day, 3-month treatment; cited from earlier work

SMILES | VPA-induced pain insensitivity (hot plate) [1] | activity in the assessments of the VPA study (social interaction, sociability index, NOR, stereotypies, EPM) ([2]; melatonin at 1 mg/kg per os daily for 14 days, 1 mg/kg) | activity in the present study (VPA model) ([2]; melatonin at a dose of 10 mg/kg per os daily for 14 days) | social interaction behavioral test (BTBR T+tf/J (BTBR) mice [3]; FIG. 15A) | 3-chamber social interaction test: side of the area where time is spent (BTBR T+tf/J (BTBR) mice [3]; FIG. 15B) | stereotyped repetitive behaviors (Marble Burying) (BTBR T+tf/J (BTBR) mice [4]) | stereotyped repetitive behaviors (Self Grooming) (BTBR T+tf/J (BTBR) mice [5]) | altered behavioral status [6] | expression of the pro-inflammatory hippocampal and serum cytokines IL-6, IL-1β and TNF-α [6] | adverse effects (autistic children) | aggressiveness, cognitive and behavioral skills, and communication (autistic children)
COc1ccc2[nH]cc(CCNC(C)=O)c2c1 [melatonin, N-acetyl-5-methoxy tryptamine] | worsened | inactive; also recorded: never shown to be active | active | no improvement | continuing to spend their time in the empty side | no improvement | no improvement |  |  |  | 
CCCCCCCCCCCCCCCC(=O)NCCO [um-PEA, Ultra-micronized palmitoylethanolamide] |  |  |  |  |  |  |  | modulating | reducing | without adverse effects | improves
